Measurements from US20240108634A1, “COMPOSITIONS AND METHODS FOR INHIBITING YAP” (The United States Government as represented by the …, priority 2021, published 2024).
Like-named read-outs stand apart in the source and are kept apart here.

What was measured:
total YAP = molecular target: T1, total YAP (Homo sapiens, UniProt P46937); assay: Total YAP ELISA in GBM cells; format: cell-based
T1 construct: endogenous in cells; host or cells: LN229
Experimental: Levels of total YAP were determined via ELISA. […] Immunoprecipitates were immunoblotted for the indicated proteins. […] Cells were treated with the indicated concentrations of inhibitor for 18 h and mRNA extracted for real time RT-PCR analyses. Measurements were performed in quadruplicate and means and+S.D. are shown. […] Cells were treated with (+) or without (−) NSC682769 (100 nM, 18 h) and harvested and separated into cytoplasmic and nuclear cellular fractions. Cytoplasmic versus nuclear material was subsequently immunoblotted for the indicated proteins. […] Values in top right corner of panels correspond to the percentage of nuclear localized YAP. Cells were grown on coverslips and treated with NSC682769. Cells were permeabilized and stained using primary antibody to YAP1 and FITC-conjugated secondary. Nuclei were stained with DAPI. Scale bar, 20 μm.
Surface plasmon resonance (SPR), ELISA, YAP-TEAD reporter activity, cellular fractionation, and immunofluorescence analyses. SPR experiments were carried out on a Nicoya OpenSPR™ instrument using immobilized YAP on a carboxyl-coated sensor. Binding was observed as the change in response units (RU) as analyte was injected at a flow rate of 10 μl/min at 25° C. TraceDrawer™ was used for kinetic analyses. The PathScan® total-YAP ELISA kit was obtained from Cell Signaling and used according to the manufacturer's instructions. YAP-TEAD reporter activity was determined as previously described (Kim N G, Gumbiner B M (2015) J Cell Biol 210: 503-515). HOP-flash contains multiple copies of wild-type TEAD-binding sites with a minimal promoter upstream of a luciferase reporter gene. Luciferase activity was measured via a luciferase assay system (Promega). Nuclear-cytoplasmic fractionation was performed according to Dignam et al. (Dignam J D, et al. (1983) Nucleic Acids Res 11: 1475-1489). Briefly, the buffers used were kept on ice and centrifugations were done at 4° C. with soft braking. After a single wash with PBS, cells were scraped with PBS (containing 1 mM DTT and 1× protease inhibitor) and harvested by centrifugation at 1000×g for 15 min. The cell pellet was gently resuspended with five times the volume of pellet with buffer A (10 mM HEPES, pH 7.9, 1.5 mM MgCl2, 10 mM KCl, 0.5 mM DTT, and 1× protease inhibitor) and incubated on ice for 15 min, followed by homogenization (Wheaton). Cell lysis was monitored by trypan blue staining. The cell lysate was spun at 1000×g for 5 min to collect the pellet as the nuclear fraction and the supernatant as the cytoplasmic fraction. […]

LN229 and GBM39 cells = assay: GBM cell proliferation; format: cell-based, human; details: 0.1, 1, 2 μM
Source text: Cells were layered in soft agar to evaluate anchorage-independent growth in the presence of the indicated concentrations of inhibitor and colonies counted following 14 days of growth. Representative crystal violet stained images are shown below. Data represent mean+S.D. of three independent experiments. […] Cells were placed in Boyden chambers and allowed to migrate towards BSA (white bars), vitronectin (light yellow bars), or fibronectin (dark yellow bars) (*, P<0.05; n=3). […] Representative crystal violet stained images are shown (200×). Data represent mean+S.D. of three independent experiments. […] Graphical data shown below represent mean+S.D. (late apoptosis; annexin V-positive, PI-positive) of three independent experiments.
Cell proliferation, clonogenic, migration, invasion and apoptosis assays. Cell proliferation was determined via Cell Titer-Glo® luminescent cell assays (Promega). Clonogenic assays were done by plating a total of 1,000 cells per well in 24-well plates in a total volume of 400 μL using a two-layered soft agar system as previously described (Masri J, et al. (2007) Cancer Res 67: 11712-11720). Cell migration assays were conducted using precoated modified Boyden chambers as previously described (Benavides-Serrato A, et al. (2017) PLoS One 12: e0176599). […]

T1 sequence (P46937 whole entry): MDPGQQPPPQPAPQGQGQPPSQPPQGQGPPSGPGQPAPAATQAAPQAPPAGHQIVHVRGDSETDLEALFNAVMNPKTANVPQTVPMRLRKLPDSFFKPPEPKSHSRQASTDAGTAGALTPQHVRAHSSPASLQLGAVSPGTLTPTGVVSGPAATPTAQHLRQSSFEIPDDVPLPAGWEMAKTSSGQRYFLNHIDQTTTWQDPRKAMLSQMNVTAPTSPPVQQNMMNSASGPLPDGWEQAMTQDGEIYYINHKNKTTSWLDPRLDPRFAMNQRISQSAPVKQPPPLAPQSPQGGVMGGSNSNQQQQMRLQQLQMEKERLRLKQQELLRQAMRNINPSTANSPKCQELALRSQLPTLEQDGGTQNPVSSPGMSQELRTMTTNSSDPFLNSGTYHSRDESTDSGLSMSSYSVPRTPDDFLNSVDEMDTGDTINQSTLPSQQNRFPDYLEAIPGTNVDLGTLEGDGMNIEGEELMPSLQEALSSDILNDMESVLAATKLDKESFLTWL

## COc1ccc(-c2cc(-c3ccccc3)nc3c2CC(=O)Nc2ccccc2-3)cc1OC [NSC682769]
Total YAP; GBM39 cells, read-out: IC50, inhibition of total YAP (ELISA)
  DC50: 5.1 nM
Total YAP; LN229 cells, read-out: IC50, inhibition of total YAP (ELISA)
  DC50: 11.8 nM
Total YAP; LN229 cells, read-out: IC50 for YAP (ELISA)
  DC50: 11.8 nM
Total YAP; patient-derived GBM39 cells, read-out: IC50 for YAP (ELISA)
  DC50: 5.1 nM
LN229 and GBM39 cells
  Cell growth: significantly inhibited
